We go through one substance from patent publication US20210368788A1, “METHODS FOR USING ANTIMICROBIAL COMPOSITIONS” (Next Science IP Holdings Pty Ltd, priority 2016, published 2021).

A short description of this test: Testing of lysozyme amount for efficacy (method not described). The note with it: 0.08 g lysozyme per kg of composition.

In the case of lysozyme, the “lowest amount exhibiting some efficacy” value is reported as 80 ppm.
